Reference: US20080045508A1, “SUBSTITUTED AMINOMETHYL BENZAMIDE COMPOUNDS” (priority 2006, published 2008)

Assays:
[1] = target: rat brain SERT (Rattus norvegicus, UniProt P31652); assay: biochemical
Protocol: The supernatant was removed and re-centrifuged at 15,000 rpm for 30 min. […] Membranes were incubated with 0.6 nM [^3H]-Citalopram plus/minus test compounds for 60 min at 25° C. and harvested by rapid filtration over GF/C glass fiber filters (pretreated with 0.3% polyethylenimine) followed by four washes with ice-cold buffer. Nonspecific binding was defined in the presence of 100 μM fluoxetine.

[2] = target: cloned human H3 receptor, stably expressed in SK-N-MC cells (Homo sapiens, UniProt Q9Y5N1); assay: H3 receptor binding
[3] = target: human H3 receptor (Homo sapiens, UniProt Q9Y5N1); assay: Cyclic AMP accumulation (reporter gene assay, SK-N-MC cells)
Protocol: Sublines of SK-N-MC cells were created that expressed a reporter construct and the human H3 receptor. The reporter gene (β-galactosidase) is under the control of multiple cyclic AMP responsive elements. In 96-well plates, histamine was added directly to the cell media followed 5 min later by an addition of forskolin (5 μM final concentration). When appropriate, antagonists were added 10 min prior to agonist addition. After a 6-h incubation at 37° C., the media was aspirated and the cells washed with 200 μL of phosphate-buffered saline followed by a second aspiration. […] Color was developed using 25 μL of 1 mg/mL substrate solution (chlorophenolred β-D galactopyranoside; Roche Molecular Biochemicals, Indianapolis, Ind.).

[4] = target: human SERT (HEK293 membranes) (Homo sapiens, UniProt P31645); assay: biochemical
Sequence of human SERT (HEK293 membranes) (P31645 whole entry): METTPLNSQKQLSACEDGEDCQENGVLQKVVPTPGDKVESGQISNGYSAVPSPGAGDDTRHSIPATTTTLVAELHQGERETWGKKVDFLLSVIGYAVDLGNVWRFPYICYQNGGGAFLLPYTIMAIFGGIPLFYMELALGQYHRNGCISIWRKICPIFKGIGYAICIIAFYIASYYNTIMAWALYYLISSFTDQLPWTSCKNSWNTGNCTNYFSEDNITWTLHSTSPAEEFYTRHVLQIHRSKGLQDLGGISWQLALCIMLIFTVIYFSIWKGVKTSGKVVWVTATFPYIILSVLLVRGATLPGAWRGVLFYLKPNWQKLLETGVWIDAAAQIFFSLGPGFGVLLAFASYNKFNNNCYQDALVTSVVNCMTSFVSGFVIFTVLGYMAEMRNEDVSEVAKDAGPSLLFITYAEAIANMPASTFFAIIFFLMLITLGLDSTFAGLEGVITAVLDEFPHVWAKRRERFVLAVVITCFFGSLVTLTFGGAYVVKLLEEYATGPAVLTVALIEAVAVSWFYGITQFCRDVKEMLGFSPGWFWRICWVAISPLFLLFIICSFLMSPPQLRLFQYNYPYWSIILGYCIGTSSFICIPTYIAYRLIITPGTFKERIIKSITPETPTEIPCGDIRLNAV
Protocol: Homogenized HEK293 (Human Embryonic Kidney) membranes expressing the human SERT were incubated with ^3H-citalopram (SERT) at rt for 1 h in 50 mM Tris, 120 mM NaCl, 5 mM KCl (pH 7.4). Nonspecific binding was determined in the presence of 10 μM fluoxetine for the SERT. The membranes were washed and the radioactivity was counted as above.

Sequence of rat brain SERT (P31652 whole entry): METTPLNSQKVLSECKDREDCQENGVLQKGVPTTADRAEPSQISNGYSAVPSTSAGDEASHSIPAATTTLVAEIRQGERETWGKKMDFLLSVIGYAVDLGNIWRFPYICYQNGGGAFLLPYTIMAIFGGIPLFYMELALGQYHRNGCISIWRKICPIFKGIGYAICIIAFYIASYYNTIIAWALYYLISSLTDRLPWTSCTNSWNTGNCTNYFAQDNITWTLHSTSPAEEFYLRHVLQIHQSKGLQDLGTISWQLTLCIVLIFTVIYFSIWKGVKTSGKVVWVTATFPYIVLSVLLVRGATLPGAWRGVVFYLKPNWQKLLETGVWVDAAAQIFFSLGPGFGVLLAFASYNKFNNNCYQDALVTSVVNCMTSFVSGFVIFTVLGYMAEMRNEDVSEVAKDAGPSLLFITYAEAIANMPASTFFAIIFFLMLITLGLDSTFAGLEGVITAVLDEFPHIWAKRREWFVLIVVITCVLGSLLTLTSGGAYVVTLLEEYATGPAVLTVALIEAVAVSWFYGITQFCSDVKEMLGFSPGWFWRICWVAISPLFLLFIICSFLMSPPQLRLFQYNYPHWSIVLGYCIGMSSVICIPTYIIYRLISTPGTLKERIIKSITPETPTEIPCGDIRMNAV
Sequence of cloned human H3 receptor, stably expressed in SK-N-MC cells (Q9Y5N1 whole entry): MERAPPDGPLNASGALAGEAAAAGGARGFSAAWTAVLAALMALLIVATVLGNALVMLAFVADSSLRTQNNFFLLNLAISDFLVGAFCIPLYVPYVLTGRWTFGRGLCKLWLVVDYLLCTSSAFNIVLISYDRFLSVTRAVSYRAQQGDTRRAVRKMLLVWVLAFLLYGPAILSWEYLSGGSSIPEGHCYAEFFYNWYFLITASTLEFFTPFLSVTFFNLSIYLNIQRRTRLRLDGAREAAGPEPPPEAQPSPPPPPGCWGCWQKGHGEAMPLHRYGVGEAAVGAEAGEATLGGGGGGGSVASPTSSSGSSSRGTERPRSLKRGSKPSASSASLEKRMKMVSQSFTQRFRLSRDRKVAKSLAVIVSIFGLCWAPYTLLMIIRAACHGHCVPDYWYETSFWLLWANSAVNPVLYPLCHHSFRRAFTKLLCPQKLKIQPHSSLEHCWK
Sequence of human H3 receptor (Q9Y5N1 whole entry): as above

Row | SMILES | Ki [1] [nM] | Ki [2] [nM] | Ki [4] [nM] | Kb [3] [nM]
1 | O=C(c1ccc(CNC2CC2)c(Oc2cccnc2)c1)N1CCCN(C2CC2)CC1 [Example 40, [4-Cyclopropylaminomethyl-3-(pyridin-3-yloxy)-phenyl]-(4-cyclopropyl-[1,4]diazepan-1-yl)-methanone] | 5000 | 2 |  | 0.501
2 | O=C(c1ccc(CN2CCCCC2)c(Oc2cccnc2)c1)N1CCCN(C2CC2)CC1 [Example 41, (4-Cyclopropyl-[1,4]diazepan-1-yl)-[4-piperidin-1-ylmethyl-3-(pyridin-3-yloxy)-phenyl]-methanone] | 10000 | 1 |  | 0.0631
3 | CNCc1cc(C(=O)N2CCCN(C3CC3)CC2)ccc1OCc1ccc(Cl)c(Cl)c1 [Example 42, (4-Cyclopropyl-[1,4]diazepan-1-yl)-[4-(3,4-dichloro-benzyloxy)-3-methylaminomethyl-phenyl]-methanone] | 2 | 4 |  | 
4 | CNCc1cc(C(=O)N2CCCN(C3CC3)CC2)ccc1Sc1cc(C(F)(F)F)ccn1 [Example 47, (4-Cyclopropyl-[1,4]diazepan-1-yl)-[3-methylaminomethyl-4-(4-trifluoromethyl-pyridin-2-ylsulfanyl)-phenyl]-methanone] | 410 | 4 |  | 
5 | CNCc1cc(C(=O)N2CCCN(C3CCC3)CC2)ccc1Oc1ccc(Cl)c(Cl)c1 [Example 48, (4-Cyclobutyl-[1,4]diazepan-1-yl)-[4-(3,4-dichloro-phenoxy)-3-methylaminomethyl-phenyl]-methanone] | 7.9 | 5.2 | 9.8 | 
6 | Cc1ccc(Oc2cc(C(=O)N3CCCN(C(C)C)CC3)ccc2CN(C)C)c(C)n1 [Example 49, [4-Dimethylaminomethyl-3-(2,6-dimethyl-pyridin-3-yloxy)-phenyl]-(4-isopropyl-[1,4]diazepan-1-yl)-methanone] | 2000 | 11 |  | 
7 | CC(C)N1CCCN(C(=O)c2ccc(CN3CCCCC3)c(OCc3ccccc3)c2)CC1 [Example 50, (3-Benzyloxy-4-piperidin-1-ylmethyl-phenyl)-(4-isopropyl-[1,4]diazepan-1-yl)-methanone] |  | 9 |  | 
8 | CNCc1ccc(C(=O)N2CCCN(C3CC3)CC2)cc1Oc1ccc(Cl)c(Cl)c1 [Example 52, (4-Cyclopropyl-[1,4]diazepan-1-yl)-[3-(3,4-dichloro-phenoxy)-4-methylaminomethyl-phenyl]-methanone] | 17 | 6 |  | 
9 | CC(C)N1CCCN(C(=O)c2ccc(CN3CCOC(CO)C3)c(Oc3ccccc3)c2)CC1 (stereo not shown) [Example 53, [4-(2-Hydroxymethyl-morpholin-4-ylmethyl)-3-phenoxy-phenyl]-(4-isopropyl-[1,4]diazepan-1-yl)-methanone] |  | 3 |  | 

The remaining compounds from weak to strong by Ki [2], led by results:

Row | Ki [1] [nM] | Ki [2] [nM] | Ki [4] [nM] | SMILES | Kb [3] [nM]
10 |  | 3 |  | O=C(c1ccc(CN2CCOCC2)c(Oc2cccnc2)c1)N1CCCN(C2CC2)CC1 [Example 51, (4-Cyclopropyl-[1,4]diazepan-1-yl)-[4-morpholin-4-ylmethyl-3-(pyridin-3-yloxy)-phenyl]-methanone] | 
11 | 62 | 2 |  | CN(Cc1cc(C(=O)N2CCCN(C3CC3)CC2)ccc1Oc1ccc(Cl)cc1)C1CC1 [Example 34, {4-(4-Chloro-phenoxy)-3-[(cyclopropyl-methyl-amino)-methyl]-phenyl}-(4-cyclopropyl-[1,4]diazepan-1-yl)-methanone] | 
12 | 15 | 2 |  | CNCc1cc(C(=O)N2CCCN(C3CC3)CC2)ccc1Oc1cccc(Cl)c1Cl [Example 35, (4-Cyclopropyl-[1,4]diazepan-1-yl)-[4-(2,3-dichloro-phenoxy)-3-methylaminomethyl-phenyl]-methanone] | 
13 | 59 | 2 |  | Cc1ccc(Oc2ccc(C(=O)N3CCCN(C4CC4)CC3)cc2CN(C)C)cn1 [Example 36, (4-Cyclopropyl-[1,4]diazepan-1-yl)-[3-dimethylaminomethyl-4-(6-methyl-pyridin-3-yloxy)-phenyl]-methanone] | 
14 | 5 | 2 |  | CNCc1cc(C(=O)N2CCCN(C3CC3)CC2)ccc1Sc1ccc(Cl)cc1 [Example 37, [4-(4-Chloro-phenylsulfanyl)-3-methylaminomethyl-phenyl]-(4-cyclopropyl-[1,4]diazepan-1-yl)-methanone] | 
15 | 5000 | 2 |  | CNCc1cc(C(=O)N2CCCN(C3CC3)CC2)ccc1Sc1ccccn1 [Example 38, (4-Cyclopropyl-[1,4]diazepan-1-yl)-[3-methylaminomethyl-4-(pyridin-2-ylsulfanyl)-phenyl]-methanone] | 
16 |  | 2 |  | COCCN(CCOC)Cc1ccc(C(=O)N2CCCN(C3CC3)CC2)cc1OCc1ccccc1 [Example 54, (3-Benzyloxy-4-{[bis-(2-methoxy-ethyl)-amino]-methyl}-phenyl)-(4-cyclopropyl-[1,4]diazepan-1-yl)-methanone] | 
17 | 28 | 0.9 |  | CNCc1cc(C(=O)N2CCCN(C3CC3)CC2)ccc1Oc1ccc(F)cc1Cl [Example 33, [4-(2-Chloro-4-fluoro-phenoxy)-3-methylaminomethyl-phenyl]-(4-cyclopropyl-[1,4]diazepan-1-yl)-methanone] | 
18 | 15 | 0.9 |  | CNCc1cc(C(=O)N2CCCN(C3CC3)CC2)ccc1Oc1ccccn1 [Example 39, (4-Cyclopropyl-[1,4]diazepan-1-yl)-[3-methylaminomethyl-4-(pyridin-2-yloxy)-phenyl]-methanone] | 
19 | 31 | 0.6 |  | CNCc1cc(C(=O)N2CCCN(C3CC3)CC2)ccc1Oc1cccc(F)c1F [Example 32, (4-Cyclopropyl-[1,4]diazepan-1-yl)-[4-(2,3-difluoro-phenoxy)-3-methylaminomethyl-phenyl]-methanone] | 
